Laboratory results reported in PMC12402003 (Frontiers in Nutrition, 2025).

What was measured:
[1] = system: Caco-2 cell monolayers; assay: Bidirectional transport across Caco-2 cell monolayer; format: in vitro ADME, human; conditions: for efflux rate (BL to AP side) / absorption rate (AP to BL side): 50 μM; for efflux rate (BL to AP side): up to 150 min; for absorption rate (AP to BL side): within 150 min; for ER (efflux rate) / Papp (AP → BL) / Papp (BL → AP): 50 μmol/L, no inhibitor; for transport mechanism into the small intestine: inferred from ER < 1 and inhibitor study
Procedure: The cells were seeded at a density of approximately 10^5 cells/cm^2 on TranswellTM filter (Corning Inc., Lowell, MA) and cultured for 21 d before use. Cell monolayer integrity was controlled by the measurement of trans-epithelial electrical resistance (TEER) with an EVOM epithelial voltammeter equipped with an electrode (World Precision Instruments, Sarasota, FL, United States). […] (a) R(%)=CBL×VBL/CAP×VAP×100 In this, R represents the absorption rate (as a percentage); CBL is the anthocyanin concentration of the BL side (in μM); VBL is the volume of anthocyanins from the BL (in L); CAP is the initial anthocyanin concentration of the AP side (in μM), and VAP is the volume of anthocyanins in the AP chamber (in L). The absorption rate of anthocyanins from BL to AP is calculated using the following Equation b: (b) R(%)=CAP×VAP/CBL×VBL×100 In this, R represents the absorption rate (as a percentage); CAP is the anthocyanin concentration from the AP side (in μM); VAP is the volume of anthocyanins in the AP chamber (in mL); CBL is the initial concentration from the BL side (in μM) and VBL is the volume of anthocyanins in the BL chamber (in L).

[2] = system: HepG2 cells; assay: TG and TC content in OA-induced high-fat HepG2 cells; format: cell-based, human; conditions: OA-induced high-fat HepG2 cells, 50 μM, 24 h
Procedure: For high fat HepG2 model: […] Afterwards, cells were harvested and lysed. […] For TG and TC assay: […] The medium was removed and the cells were washed twice with PBS. The levels of triglycerides (TG) and total cholesterol (TC) in the cells were determined according to the instructions of test kits.

[3] = system: Srebp-1c; assay: Western blot of Srebp-1c protein in Caco-2/HepG2 co-culture; format: cell-based, human; conditions: OA-induced co-culture, 50 μM, 24 h; compared vs. OA
Procedure: (§1) Cells from the co-culture model were lysed and supernatants were collected. The protein concentrations were determined using the BCA Protein Quantitation Kit. Then electrophoresis of samples was conducted using a SDS-PAGE kit (Beyotime Biotechnology) following the manufacturer’s instructions and transferred to poly-vinylidene difluoride (PVDF) membrane. Next, membranes were incubated in 5% nonfat milk to block non-specific antibody binding for 30 min at room temperature and followed by incubating with primary antibodies and secondary antibodies. Chemiluminescence based-images of the blots were acquired using ImageQuant LAS 500 system (GE, United States). Protein bands were quantified using ImageJ (version 1.53a) software. The changes in expression levels of these proteins detected finally are used to evaluate the sample’s effect on lipid metabolism.

[4] = system: Pparγ; assay: Western blot of PPARγ protein in Caco-2/HepG2 co-culture; format: cell-based, human; conditions: OA-induced co-culture, 50 μM, 24 h; compared vs. OA
Procedure: as §1

[5] = system: Fasn; assay: Western blot of Fasn protein in Caco-2/HepG2 co-culture; format: cell-based, human; conditions: OA-induced co-culture, 50 μM, 24 h; compared vs. OA
Procedure: as §1

SMILES	efflux rate (BL to AP side) [1] [%]	absorption rate (AP to BL side) [1] [%]	ER (efflux rate) ([1]; 30 min)	Papp (AP → BL) ([1]; 30 min)	Papp (BL → AP) ([1]; 30 min)	ER (efflux rate) ([1]; 60 min)	Papp (AP → BL) ([1]; 60 min)	Papp (BL → AP) ([1]; 60 min)	ER (efflux rate) ([1]; 90 min)	Papp (BL → AP) ([1]; 90 min)	ER (efflux rate) ([1]; 120 min)	Papp (AP → BL) ([1]; 120 min)	Papp (BL → AP) ([1]; 120 min)	ER (efflux rate) ([1]; 150 min)	Papp (AP → BL) ([1]; 150 min)	Papp (BL → AP) ([1]; 150 min)	transport mechanism into the small intestine [1]	PPARγ protein expression level (densitometry) [4]	other results
OC[C@H]1O[C@@H](Oc2cc3c(O)cc(O)cc3[o+]c2-c2ccc(O)c(O)c2)[C@H](O)[C@@H](O)[C@@H]1O [C3G, Cyanidin-3-O-glucoside]	15.41	22.47	0.49	3.9 ± 1.32^Aa* ×10^−5 cm /s	1.8 ± 0.14^Ba ×10^−5 cm /s	0.56	1.8 ± 0.07^Cb* ×10^−5 cm /s	1.0 ± 0.17^Bb ×10^−5 cm /s	0.53	0.6 ± 0.04^Cc ×10^−5 cm /s	0.57	0.9 ± 0.03^Cb* ×10^−5 cm /s	0.5 ± 0.08^Ccd ×10^−5 cm /s	0.54	0.7 ± 0.03^Bb* ×10^−5 cm /s	0.4 ± 0.04^Cde ×10^−5 cm /s	passive diffusion	1.03	Papp (AP → BL) ([1]; 90 min): 1.1 ± 0.02^Cb* ×10^−5 cm /s; reduction of TG content [2]: 21%; Srebp-1c protein expression level (densitometry) [3]: 1.32
O.Oc1cc(O)c2c(c1)O[C@H](c1ccc(O)c(O)c1)[C@@H](O)C2 [catechin]	68.71	73.41	0.77	7.9 ± 0.26^Ba ×10^−5 cm /s	6.1 ± 2.78^Aa ×10^−5 cm /s	0.55	4.6 ± 0.43^Ab* ×10^−5 cm /s	2.5 ± 0.28^Ab ×10^−5 cm /s	0.52	1.6 ± 0.11^Ab ×10^−5 cm /s	0.51	2.5 ± 0.19^Ad* ×10^−5 cm /s	1.31 ± 0.13^Ab ×10^−5 cm /s	0.48	2.2 ± 0.52^Ad* ×10^−5 cm /s	1.0 ± 0.03^Ab ×10^−5 cm /s	passive diffusion	1.08	Fasn protein expression level (densitometry) [5]: 1.11
